{
  "source": "patent US11279733B2",
  "about": "“Peptide antibiotics” (priority 2017, dated 2022)",
  "key": {"A. baumannii ATCC 19606": {"tested_on": "A. baumannii ATCC 19606", "conditions": "ATCC 19606", "how_it_was_run": "(§1)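 Mid-log cultures grown in Mueller Hinton broth at 37° C were tested by 2-fold broth microdilution at 5×10^5 CFU/mL final. Compounds were dissolved in water and tested over a final range of 32 to 0.015 μg/mL.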"}, "A. baumannii GN_093 PmxR": {"tested_on": "A. baumannii GN_093 PmxR", "conditions": "GN 093 PmxR", "how_it_was_run": "as §1"}, "E. coli ATCC 25922": {"tested_on": "E. coli ATCC 25922", "conditions": "ATCC 25922", "how_it_was_run": "as §1"}, "K. pneumoniae ATCC 13883": {"tested_on": "K. pneumoniae ATCC 13883", "conditions": "ATCC 13883", "how_it_was_run": "as §1"}, "[1]": {"tested_on": "K. pneumoniae ATCC 700603, MDR", "conditions": "ATCC 700603", "how_it_was_run": "as §1"}, "[2]": {"tested_on": "K. pneumoniae ATCC BAA-2146, NDM-1 pos", "conditions": "ATCC BAA-2146", "how_it_was_run": "as §1"}, "[3]": {"tested_on": "K. pneumoniae GN_102 PmxR", "conditions": "GN 102 PmxR", "how_it_was_run": "as §1"}, "[4]": {"tested_on": "K. pneumoniae GN_106, PmxR", "conditions": "GN 106, PmxR", "how_it_was_run": "as §1"}, "P. aeruginosa ATCC 27853": {"tested_on": "P. aeruginosa ATCC 27853", "conditions": "ATCC 27853", "how_it_was_run": "as §1"}, "[5]": {"tested_on": "P. aeruginosa GN_043, PmxR", "conditions": "polymyxin-resistant", "how_it_was_run": "as §1"}, "[6]": {"tested_on": "P. aeruginosa GN_105, PmxR", "conditions": "GN 105, PmxR", "how_it_was_run": "as §1"}, "[7]": {"tested_on": "S. aureus ATCC 25923, MSSA", "conditions": "ATCC 25923", "how_it_was_run": "as §1"}, "Neisseria gonorrhoeae": {"tested_on": "Neisseria gonorrhoeae", "assay": "MIC determination, Neisseria gonorrhoeae", "type": "cell-based", "conditions": "strain FA19 ATCC BAA-1838", "protocol": "Bacteria were either obtained from American Type Culture Collection (ATCC; Manassas, Va., USA) or independent academic clinical isolate collections, as listed in Table 18 below. Bacteria were cultured in Nutrient broth (NB; Bacto Laboratories, catalogue No. 234000) or Mueller Hinton broth (MHB; Bacto Laboratories, catalogue No. 211443) at 37° C. overnight with shaking (˜180 RPM). A sample of each culture was then diluted 50-fold in fresh MHB and incubated at 37° C. for 2-3 h with shaking (˜180 RPM). Compound stock solutions were prepared as 0.64 mg/mL or 2.56 mg/mL in water. The compounds, at twice the final desired concentration, were serially diluted 2-fold across the wells of 96-well plates (Polystyrene, Corning, catalogue No. 3370). Mid-log phase bacterial cultures (after 2-3 h incubation) were diluted to a final concentration of 1×10^6 colony forming units (CFU)/mL, and 50 μL was added to each well giving a final cell density of 5×10^5 and a compound concentration range of 32 μg/mL to 0.015 μg/mL (128-0.06 μg/mL against P. aeruginosa PA9704)."}, "in vitro [8]": {"assay": "in vitro", "conditions": "human", "how_it_was_run": "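Cells were seeded at 4000 per well and allowed to attach for 24 h at 37 °C, 5% CO2, then exposed to compounds for 24 h. Resazurin (5 μM) was added for 2 h at 37 °C and fluorescence read at 560/590 nm. CC50 was derived by curve fitting of dose-dependent growth inhibition.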"}, "in vitro [9]": {"assay": "in vitro", "conditions": "human", "how_it_was_run": "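HK2 cells were seeded at 2000 per well in DMEM/F12 with 10% FBS and left to attach for 24 h at 37 °C, 5% CO2. They were then exposed for 24 h to 3-fold peptide dilutions starting from 600 μM solutions in quadruplicate. LDH release was read at 450 nm, and CC50 was fitted from dose-response curves.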", "remark": "listed apart in the source"}},
  "note": "Positions of bridges follow the written chain, without caps; N, C: chain ends. Non-standard residues stand in square brackets, D forms with d. Residues, ends and D or L forms follow the SMILES beside them. *: point of attachment. Decanoyl(3R-OH) = CCCCCCC[C@@H](O)CC(=O)*; dPhe(3-Cl) = N[C@H](Cc1cccc(Cl)c1)C(=O)O; Igl = N[C@H](C(=O)O)C1Cc2ccccc2C1; dDab = NCC[C@@H](N)C(=O)O; Dab = NCC[C@H](N)C(=O)O",
  "data": [
    {"smiles": "CCCCCCC[C@@H](O)CC(=O)N[C@H](CCN)C(=O)N[C@H]1CCNC(=O)[C@H](Cc2c[nH]c3ccccc23)NC(=O)[C@H](CCN)NC(=O)[C@H](CCN)NC(=O)[C@H](C2Cc3ccccc3C2)NC(=O)[C@@H](Cc2ccccc2)NC(=O)[C@H](CCN)NC1=O", "note": "[compound 8103, 3(R)OH-nC9CO-D-Dab-cyc[L-Dab-L-Dab-L-Dab-D-Phe-L-indanylgly-L-Dab-L-Dab-L-Trp]] ({Decanoyl(3R-OH)}-[dDab][Dab][Dab][dF][Igl][Dab][Dab]W; lactam 2-C)", "values": [
      {"measurement": "MIC A. baumannii ATCC 19606", "setting": "A. baumannii ATCC 19606", "result": 4, "unit": "µg/mL"},
      {"measurement": "MIC A. baumannii GN_093 PmxR", "setting": "A. baumannii GN_093 PmxR", "result": 4, "unit": "µg/mL"},
      {"measurement": "MIC E. coli ATCC 25922", "setting": "E. coli ATCC 25922", "result": 2, "unit": "µg/mL"},
      {"measurement": "MIC K. pneumoniae ATCC 13883", "setting": "K. pneumoniae ATCC 13883", "result": 4, "unit": "µg/mL"},
      {"measurement": "MIC K. pneumoniae ATCC 700603, MDR", "setting": "[1]", "result": 2, "unit": "µg/mL"},
      {"measurement": "MIC K. pneumoniae ATCC BAA-2146, NDM-1 pos", "setting": "[2]", "result": 4, "unit": "µg/mL"},
      {"measurement": "MIC K. pneumoniae GN_102 PmxR", "setting": "[3]", "result": 4, "unit": "µg/mL"},
      {"measurement": "MIC K. pneumoniae GN_106, PmxR", "setting": "[4]", "result": 4, "unit": "µg/mL"},
      {"measurement": "MIC P. aeruginosa ATCC 27853", "setting": "P. aeruginosa ATCC 27853", "result": 4, "unit": "µg/mL"},
      {"measurement": "MIC P. aeruginosa GN_043, PmxR", "setting": "[5]", "result": 2, "unit": "µg/mL"},
      {"measurement": "MIC P. aeruginosa GN_105, PmxR", "setting": "[6]", "result": 2, "unit": "µg/mL"},
      {"measurement": "MIC S. aureus ATCC 25923, MSSA", "setting": "[7]", "result": 2, "unit": "µg/mL"},
      {"measurement": "MIC N. gonorrhoeae FA19 ATCC BAA-1838", "setting": "Neisseria gonorrhoeae", "result": 0.2, "unit": "µg/mL"}
    ]},
    {"smiles": "CCCCCCC[C@@H](O)CC(=O)N[C@H](CCN)C(=O)N[C@H]1CCNC(=O)[C@H](Cc2c[nH]c3ccccc23)NC(=O)[C@H](CCN)NC(=O)[C@H](CCN)NC(=O)[C@H](CC(C)C)NC(=O)[C@@H](Cc2cccc(Cl)c2)NC(=O)[C@H](CCN)NC1=O", "note": "[compound 8914, 3(R)OH-nC9CO-D-Dab-cyc[L-Dab-L-Dab-D-Phe(3-Cl)-L-Leu-L-Dab-L-Dab-L-Trp]] ({Decanoyl(3R-OH)}-[dDab][Dab][Dab][dPhe(3-Cl)]L[Dab][Dab]W; lactam 2-C)", "values": [
      {"measurement": "MIC A. baumannii ATCC 19606", "setting": "A. baumannii ATCC 19606", "result": 4, "unit": "µg/mL"},
      {"measurement": "MIC A. baumannii GN_093 PmxR", "setting": "A. baumannii GN_093 PmxR", "result": 4, "unit": "µg/mL"},
      {"measurement": "MIC E. coli ATCC 25922", "setting": "E. coli ATCC 25922", "result": 2, "unit": "µg/mL"},
      {"measurement": "MIC K. pneumoniae ATCC 13883", "setting": "K. pneumoniae ATCC 13883", "result": 2, "unit": "µg/mL"},
      {"measurement": "MIC K. pneumoniae ATCC 700603, MDR", "setting": "[1]", "result": 2, "unit": "µg/mL"},
      {"measurement": "MIC K. pneumoniae ATCC BAA-2146, NDM-1 pos", "setting": "[2]", "result": 4, "unit": "µg/mL"},
      {"measurement": "MIC K. pneumoniae GN_102 PmxR", "setting": "[3]", "result": 4, "unit": "µg/mL"},
      {"measurement": "MIC K. pneumoniae GN_106, PmxR", "setting": "[4]", "result": 4, "unit": "µg/mL"},
      {"measurement": "MIC P. aeruginosa ATCC 27853", "setting": "P. aeruginosa ATCC 27853", "result": 2, "unit": "µg/mL"},
      {"measurement": "MIC P. aeruginosa GN_043, PmxR", "setting": "[5]", "result": 4, "unit": "µg/mL"},
      {"measurement": "MIC P. aeruginosa GN_105, PmxR", "setting": "[6]", "result": 1, "unit": "µg/mL"},
      {"measurement": "MIC S. aureus ATCC 25923, MSSA", "setting": "[7]", "result": 2, "unit": "µg/mL"},
      {"measurement": "CC50 at 24 h", "setting": "in vitro [8]", "result": 25, "unit": "µM"},
      {"measurement": "MIC N. gonorrhoeae FA19 ATCC BAA-1838", "setting": "Neisseria gonorrhoeae", "result": 0.78, "unit": "µg/mL"}
    ]},
    {"smiles": "CCCCCCC[C@@H](O)CC(=O)N[C@H](CCN)C(=O)N[C@H]1CCNC(=O)[C@H]([C@@H](C)O)NC(=O)[C@H](CCN)NC(=O)[C@H](CCN)NC(=O)[C@H](CC(C)C)NC(=O)[C@@H](Cc2ccccc2)NC(=O)[C@H](CCN)NC1=O", "note": "[compound 5387, 3(R)OH-nC9CO-D-Dab-cyc[L-Dab-L-Dab-D-Phe-L-Leu-L-Dab-L-Dab-L-Thr]] ({Decanoyl(3R-OH)}-[dDab][Dab][Dab][dF]L[Dab][Dab]T; lactam 2-C)", "values": [
      {"measurement": "MIC A. baumannii ATCC 19606", "setting": "A. baumannii ATCC 19606", "result": 8, "unit": "µg/mL"},
      {"measurement": "MIC A. baumannii GN_093 PmxR", "setting": "A. baumannii GN_093 PmxR", "result": ">32", "unit": "µg/mL"},
      {"measurement": "MIC E. coli ATCC 25922", "setting": "E. coli ATCC 25922", "result": 2, "unit": "µg/mL"},
      {"measurement": "MIC K. pneumoniae ATCC 13883", "setting": "K. pneumoniae ATCC 13883", "result": 2, "unit": "µg/mL"},
      {"measurement": "MIC K. pneumoniae ATCC 700603, MDR", "setting": "[1]", "result": 2, "unit": "µg/mL"},
      {"measurement": "MIC K. pneumoniae ATCC BAA-2146, NDM-1 pos", "setting": "[2]", "result": 1, "unit": "µg/mL"},
      {"measurement": "MIC K. pneumoniae GN_102 PmxR", "setting": "[3]", "result": ">32", "unit": "µg/mL"},
      {"measurement": "MIC K. pneumoniae GN_106, PmxR", "setting": "[4]", "result": ">32", "unit": "µg/mL"},
      {"measurement": "MIC P. aeruginosa ATCC 27853", "setting": "P. aeruginosa ATCC 27853", "result": 1, "unit": "µg/mL"},
      {"measurement": "MIC P. aeruginosa GN_043, PmxR", "setting": "[5]", "result": 2, "unit": "µg/mL"},
      {"measurement": "MIC P. aeruginosa GN_105, PmxR", "setting": "[6]", "result": ">32", "unit": "µg/mL"},
      {"measurement": "MIC S. aureus ATCC 25923, MSSA", "setting": "[7]", "result": ">32", "unit": "µg/mL"},
      {"measurement": "CC50 at 24 h", "setting": "in vitro [9]", "result": 210, "unit": "µM"}
    ]}
  ]
}
